Key:
[1] = system: residual viable human CD45+AML cells (leukemia-initiating capacity); test: Secondary (serial) transplantation of residual human AML cells after in vivo treatment; parameters: species or system NSG mice; conditions: 2.5% of residual viable human CD45+ cells transplanted per secondary recipient; single-agent groups
Description: (§1) In vivo treatment experiments were performed with AML-engrafted NSG recipients using RK-20449 (Ref. STM 2013) and ABT-199 (Souers A J et al., Nature Medicine 2013, Pan R et al., Cancer Discovery 2014). The recipients were administered RK-20449 intraperitoneally 30 mg/kg twice a day, ABT-199 orally 70 mg/kg once a day or both RK-20449 and ABT-199 at these dosing schedules. The mice were sacrificed when they became moribund or after 4˜6 weeks of treatment, and human AML chimerisms in BM, spleen and PB were determined using flow cytometry. In secondary transplantation, each mouse received 7-AAD(-) viable human CD45+cells from 2.5% of total BM that remained in AML-engrafted recipients at the time of sacrifice, to simulate relapse occurring from residual viable AML cells.
Leukemia-initiating capacity remaining after treatment was compared by isolating residual viable human CD45+AML cells from each treated mouse and transplanting a pre-determined fraction into secondary NSG recipients.

[2] = system: human FLT3−ITD+AML cells; test: In vivo treatment of AML-engrafted NSG recipients (PDX model); parameters: species or system NSG mice
Description: NSG newborns received 1.5Gy total body irradiation followed by intravenous injection of purified human cells. Donor cells were purified according to their cell surface phenotype using monoclonal antibodies against human CD34, CD38, CD90, CD45RA, CD3, CD19 and CD33. Engraftment levels of human cells in the NSG recipients were assessed by retro-orbital phlebotomy and flow cytometry.
as §1
These studies examined whether inhibition of a mutated kinase alone eliminates AML in vivo using a NSG PDX model. Patient-derived cells with a FLT3−ITD mutation engraft in vivo and initiate AML, but the individual FLT3−ITD+cells harbor multiple other mutations in various combinations. These mutations may contribute to therapy responsiveness in cooperation with FLT3−ITD, and a PDX model that reflects mutational complexity of human AML cells is necessary to examine the contribution of multiple co-existing mutations. Therefore, the frequency of AML-associated somatic mutations was evaluated in the disclosed PDX model using newborn NSG xenotransplantation, and the same sets of mutations were present in patient-derived leukemia-initiating population and engrafted AML cells in recipients (see, FIG. 4). […] The extent that targeting FLT3 pathway alone can result in reduction of human AML cells harboring multiple mutations in vivo was examined as follows. RK-20449 is a pyrrolo-pyrimidine-derivative multi-kinase inhibitor of Src family kinase HCK and FLT3 that effectively target human AML cells. Therefore, RK-20449 was administered to 58 NSG mice engrafted with AML from 19 FLT3−ITD+AML patients and the results are shown in FIG. 8.

Row | SMILES | AML initiation in secondary recipients from treated BM [1] | residual BM human CD45+chimerism ([2]; RK-20449 alone 30 mg/kg i.p. twice a day, five patients with complete responses, every recipient treated) | response in the spleen ([2]; RK-20449 alone, 11 additional cases) | response of FLT3−ITD+human AML cells to single agent in vivo ([2]; all 19 cases tested) | remaining AML cells in BM, spleen and PB ([2]; flow cytometry and immunohistochemistry, complete-responder patients, all recipients treated) | BCL-2 dependence for leukemia cell survival ([2]; in vivo kinase inhibition) | cases with residual AML cells in the BM of at least one treated mouse ([2]; single agent RK-20449) | response to ABT-199 alone ([2]; ABT-199 orally 70 mg/kg once a day, majority of cases)
1 | CN1CCN([C@H]2CC[C@H](n3cc(-c4ccc(Oc5ccccc5)cc4)c4c(N)ncnc43)CC2)CC1 [RK-20449, 7-((1R,4R)-4-(4-methylpiperazin-l-yl)cyclohexyl)-5-(4-phenoxyphenyl)-7H-pyrrolo[2,3-d]pyrimidin-4-amine] | every secondary recipient | < 5% | complete responses in the spleen in a majority of recipients tested | significant responses | less than 0.01% | enhanced | 14 of 19 | 
2 | CC1(C)CCC(CN2CCN(c3ccc(C(=O)NS(=O)(=O)c4ccc(NCC5CCOCC5)c([N+](=O)[O-])c4)c(Oc4cnc5[nH]ccc5c4)c3)CC2)=C(c2ccc(Cl)cc2)C1 [ABT-199, reference compound] | every secondary recipient |  |  |  |  |  |  | limited responses

From patent US20190255056A1, “A HCK INHIBITOR AND A BCL-2 INHIBITOR FOR TREATING ACUTE MYELOID LEUKEMIA” (RIKEN, priority 2016, published 2019)
